Measured values from the NIST ThermoML archive (doi:10.1016/j.fluid.2016.08.002).

Assay: xn = mol fraction of the nth substance listed
Conditions: Gas, Vibrating tube method

S [hydrogen sulfide] + C
Conditions | mass density [kg/m3]
253.4 K, 9215 kPa, x2 = 0.8685 | 128.92
253.4 K, 9484 kPa, x2 = 0.8685 | 135.48
253.41 K, 10167 kPa, x2 = 0.8685 | 150.17
253.42 K, 10405 kPa, x2 = 0.8685 | 155.11
253.42 K, 10879 kPa, x2 = 0.8685 | 164.94
253.42 K, 11161 kPa, x2 = 0.8685 | 170.62
253.43 K, 9711 kPa, x2 = 0.8685 | 140.67
253.43 K, 9944 kPa, x2 = 0.8685 | 145.46
253.44 K, 10674 kPa, x2 = 0.8685 | 160.71
253.45 K, 11408 kPa, x2 = 0.8685 | 175.6
253.45 K, 12503 kPa, x2 = 0.8685 | 195.9
253.46 K, 11691 kPa, x2 = 0.8685 | 181.06
253.46 K, 11951 kPa, x2 = 0.8685 | 186.09
253.46 K, 12221 kPa, x2 = 0.8685 | 190.99
253.46 K, 12710 kPa, x2 = 0.8685 | 199.55
253.47 K, 13026 kPa, x2 = 0.8685 | 204.72
253.48 K, 13361 kPa, x2 = 0.8685 | 209.99
253.49 K, 13557 kPa, x2 = 0.8685 | 213.18
253.5 K, 13904 kPa, x2 = 0.8685 | 217.77
253.53 K, 14217 kPa, x2 = 0.8685 | 222.31
253.53 K, 14605 kPa, x2 = 0.8685 | 227.86
253.53 K, 27036 kPa, x2 = 0.8685 | 316.4
253.54 K, 15328 kPa, x2 = 0.8685 | 236.23
253.56 K, 16209 kPa, x2 = 0.8685 | 246.09
253.56 K, 23487 kPa, x2 = 0.8685 | 300.68
253.57 K, 26154 kPa, x2 = 0.8685 | 313.25
253.58 K, 16612 kPa, x2 = 0.8685 | 250.04
253.59 K, 17129 kPa, x2 = 0.8685 | 255.23
253.6 K, 17589 kPa, x2 = 0.8685 | 259.35
253.61 K, 18036 kPa, x2 = 0.8685 | 263.28
253.61 K, 18480 kPa, x2 = 0.8685 | 267.15
253.62 K, 18822 kPa, x2 = 0.8685 | 269.8
253.63 K, 19390 kPa, x2 = 0.8685 | 274.47
253.64 K, 19853 kPa, x2 = 0.8685 | 277.53
253.66 K, 21081 kPa, x2 = 0.8685 | 286.3
253.66 K, 21605 kPa, x2 = 0.8685 | 289.87
253.67 K, 22087 kPa, x2 = 0.8685 | 292.82
253.68 K, 22512 kPa, x2 = 0.8685 | 295.31
253.68 K, 22918 kPa, x2 = 0.8685 | 297.52
253.72 K, 26573 kPa, x2 = 0.8685 | 314.9
272.97 K, 448 kPa, x2 = 0.714 | 4.32
272.98 K, 925 kPa, x2 = 0.714 | 9.1
272.98 K, 1959 kPa, x2 = 0.714 | 21.08
272.99 K, 1499 kPa, x2 = 0.714 | 15.62
272.99 K, 2470 kPa, x2 = 0.714 | 27.39
272.99 K, 15974 kPa, x2 = 0.714 | 304.94
272.99 K, 16531 kPa, x2 = 0.714 | 310.78
273 K, 5009 kPa, x2 = 0.714 | 66.37
273 K, 13055 kPa, x2 = 0.714 | 265.48
273 K, 13551 kPa, x2 = 0.714 | 273.7
273 K, 14019 kPa, x2 = 0.714 | 280.64
273 K, 14532 kPa, x2 = 0.714 | 287.5
273 K, 15457 kPa, x2 = 0.714 | 298.99
273.01 K, 12511 kPa, x2 = 0.714 | 252.68
273.01 K, 14977 kPa, x2 = 0.714 | 293.17
273.02 K, 4006 kPa, x2 = 0.714 | 49.21
273.02 K, 4495 kPa, x2 = 0.714 | 57.7
273.02 K, 5020 kPa, x2 = 0.8197 | 51.69
273.03 K, 5418 kPa, x2 = 0.714 | 73.5
273.03 K, 16977 kPa, x2 = 0.714 | 315.19
273.03 K, 29571 kPa, x2 = 0.714 | 387.72
273.03 K, 30070 kPa, x2 = 0.714 | 389.49
273.04 K, 220 kPa, x2 = 0.8197 | 1.87
273.04 K, 5526 kPa, x2 = 0.8197 | 58.55
273.05 K, 512 kPa, x2 = 0.8197 | 4.39
273.05 K, 6060 kPa, x2 = 0.8197 | 66.2
273.05 K, 6535 kPa, x2 = 0.8197 | 73.36
273.05 K, 19490 kPa, x2 = 0.8197 | 268.43
273.05 K, 20545 kPa, x2 = 0.8197 | 276.64
273.05 K, 27474 kPa, x2 = 0.714 | 379.67
273.05 K, 29015 kPa, x2 = 0.714 | 385.58
273.06 K, 1024 kPa, x2 = 0.8197 | 8.86
273.06 K, 1546 kPa, x2 = 0.8197 | 13.54
273.06 K, 1998 kPa, x2 = 0.8197 | 17.83
273.06 K, 3515 kPa, x2 = 0.714 | 41.26
273.06 K, 4568 kPa, x2 = 0.8197 | 45.89
273.06 K, 7007 kPa, x2 = 0.8197 | 80.78
273.06 K, 7503 kPa, x2 = 0.8197 | 88.86
273.06 K, 19898 kPa, x2 = 0.8197 | 271.74
273.06 K, 27956 kPa, x2 = 0.714 | 381.54
273.07 K, 2472 kPa, x2 = 0.8197 | 22.64
273.07 K, 2991 kPa, x2 = 0.714 | 34.29
273.07 K, 4037 kPa, x2 = 0.8197 | 39.48
273.07 K, 19004 kPa, x2 = 0.8197 | 264.22
273.07 K, 21088 kPa, x2 = 0.8197 | 280.47
273.07 K, 22026 kPa, x2 = 0.8197 | 286.58
273.08 K, 3006 kPa, x2 = 0.8197 | 28.12
273.08 K, 3496 kPa, x2 = 0.8197 | 33.34
273.08 K, 8037 kPa, x2 = 0.8197 | 97.86
273.08 K, 17450 kPa, x2 = 0.714 | 319.61
273.08 K, 17522 kPa, x2 = 0.8197 | 249.57
273.08 K, 18504 kPa, x2 = 0.8197 | 259.61
273.08 K, 21490 kPa, x2 = 0.8197 | 283.16
273.09 K, 8509 kPa, x2 = 0.8197 | 106.04
273.09 K, 8697 kPa, x2 = 0.8197 | 109.34
273.09 K, 18521 kPa, x2 = 0.714 | 328.7
273.1 K, 18017 kPa, x2 = 0.8197 | 254.8
273.1 K, 18931 kPa, x2 = 0.714 | 331.97
273.1 K, 22561 kPa, x2 = 0.8197 | 289.86
273.1 K, 28471 kPa, x2 = 0.714 | 383.53
273.11 K, 9417 kPa, x2 = 0.8197 | 122.17
273.11 K, 10159 kPa, x2 = 0.8197 | 135.6
273.11 K, 14299 kPa, x2 = 0.8197 | 207.01
273.11 K, 17004 kPa, x2 = 0.8197 | 243.74
273.11 K, 17956 kPa, x2 = 0.714 | 324.07
273.11 K, 23102 kPa, x2 = 0.8197 | 293.06
273.12 K, 23507 kPa, x2 = 0.8197 | 295.4
273.13 K, 10896 kPa, x2 = 0.8197 | 148.97
273.13 K, 11490 kPa, x2 = 0.8197 | 159.68
273.13 K, 12024 kPa, x2 = 0.8197 | 169.16
273.13 K, 13513 kPa, x2 = 0.8197 | 194.52
273.13 K, 14007 kPa, x2 = 0.8197 | 202.45
273.13 K, 14904 kPa, x2 = 0.8197 | 216.11
273.13 K, 15510 kPa, x2 = 0.8197 | 224.73
273.13 K, 16041 kPa, x2 = 0.8197 | 231.85
273.13 K, 16504 kPa, x2 = 0.8197 | 237.74
273.13 K, 24081 kPa, x2 = 0.8197 | 298.69
273.13 K, 27492 kPa, x2 = 0.8197 | 316.71
273.13 K, 28026 kPa, x2 = 0.8197 | 319.37
273.13 K, 28568 kPa, x2 = 0.8197 | 321.92
273.13 K, 29088 kPa, x2 = 0.8197 | 324.13
273.13 K, 29546 kPa, x2 = 0.8197 | 325.75
273.13 K, 29999 kPa, x2 = 0.8197 | 327.01
273.14 K, 10580 kPa, x2 = 0.8197 | 143.25
273.14 K, 21825 kPa, x2 = 0.714 | 351.99
273.14 K, 24511 kPa, x2 = 0.8197 | 301.13
273.14 K, 26076 kPa, x2 = 0.8197 | 309.49
273.14 K, 26577 kPa, x2 = 0.8197 | 312.08
273.14 K, 26982 kPa, x2 = 0.8197 | 314.11
273.15 K, 25182 kPa, x2 = 0.8197 | 304.96
273.15 K, 25661 kPa, x2 = 0.8197 | 307.41
273.16 K, 13305 kPa, x2 = 0.8197 | 191.11
